# Experimental data as given in patent publication US9708314B2, “Heterocyclic amide compound” (NISSAN CHEMICAL INDUSTRIES, LTD., priority 2013, dated 2017).
# Legend:
# Type in all cases: in vivo
# [1] = tested on: directly sowed Oryza sativa; assay: Test Example 4: effect on crop by application to foliage (diluvial soil, plastic box); settings: for d (directly sowed Oryza sativa) effect on crop: application to foliage, application herbicide amount 320 g/ha
# In short: (§1)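 Scores run from 0 (herbicidal ratio ≤5%) to 5 (≥90%, almost fully withered) and were assessed three weeks after foliar spraying. Seedlings had been raised for 14 days at 25-30° C in sterilized diluvial soil before treatment, with the emulsion diluted in water to the stated g/ha dose.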
# Brassica campestris L. = assay: as above; settings: for g (Brassica campestris L.) effect on crop: application to foliage, application herbicide amount 320 g/ha
# In short: as §1
# Glycine max = assay: as above; settings: for c (Glycine max) effect on crop: application to foliage, application herbicide amount 320 g/ha
# In short: as §1
# Triticum aestivum = assay: as above; settings: for e (Triticum aestivum) effect on crop: application to foliage, application herbicide amount 320 g/ha
# In short: as §1
# [2] = tested on: Beta vulgaris ssp. vulgaris; assay: as above; settings: for f (Beta vulgaris ssp. vulgaris) effect on crop: application to foliage, application herbicide amount 320 g/ha
# In short: as §1
# Zea mays = assay: as above; settings: for b (Zea mays) effect on crop: application to foliage, application herbicide amount 320 g/ha
# In short: as §1
# [3] = tested on: directly sowed Oryza sativa; assay: Test Example 3: effect on crop by application to foliage (Wagner pot, water depth 0.1-0.5 cm); settings: Nineteenth Table, application herbicide amount 320 g/ha
# In short: (§2)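 Wagner pot foliar test: sow, grow 14 d (25–30 °C), spray diluted emulsion at set g/ha, score after 3 wk; 0 ≤5%, 5 ≥90% herbicidal ratio.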
# Avena fatua = assay: Test Example 4: herbicidal effect by application to foliage (diluvial soil, plastic box); settings: for I (Avena fatua) herbicidal effect: application to foliage, application herbicide amount 320 g/ha
# In short: as §1
# Abutilon theophrasti = assay: as above; settings: for M (Abutilon theophrasti) herbicidal effect: application to foliage, application herbicide amount 320 g/ha
# In short: as §1
# [4] = tested on: Echinochloa crus-galli var. crus-galli; assay: as above; settings: for H (Echinochloa crus-galli var. crus-galli) herbicidal effect: application to foliage, application herbicide amount 320 g/ha
# In short: as §1
# Lolium multiflorum Lam. = assay: as above; settings: for K (Lolium multiflorum Lam.) herbicidal effect: application to foliage, application herbicide amount 320 g/ha
# In short: as §1
# Stellaria media = assay: as above; settings: for P (Stellaria media) herbicidal effect: application to foliage, application herbicide amount 320 g/ha
# In short: as §1
# Alopecurus myosuroides = assay: as above; settings: for J (Alopecurus myosuroides) herbicidal effect: application to foliage, application herbicide amount 320 g/ha
# In short: as §1
# Apera spica-venti. = assay: as above; settings: for L (Apera spica-venti.) herbicidal effect: application to foliage, application herbicide amount 320 g/ha
# In short: as §1
# Veronica persica = assay: as above; settings: for R (Veronica persica) herbicidal effect: application to foliage, application herbicide amount 320 g/ha
# In short: as §1
# Galium spurium = assay: as above; settings: for Q (Galium spurium) herbicidal effect: application to foliage, application herbicide amount 320 g/ha
# In short: as §1
# Digitaria ciliaris = assay: as above; settings: for F (Digitaria ciliaris) herbicidal effect: application to foliage, application herbicide amount 320 g/ha
# In short: as §1
# Chenopodium album = assay: as above; settings: for O (Chenopodium album) herbicidal effect: application to foliage, application herbicide amount 320 g/ha
# In short: as §1
# Setaria viridis = assay: as above; settings: for G (Setaria viridis) herbicidal effect: application to foliage, application herbicide amount 320 g/ha
# In short: as §1
# Amaranthus retroflexus = assay: as above; settings: for N (Amaranthus retroflexus) herbicidal effect: application to foliage, application herbicide amount 320 g/ha
# In short: as §1
# Cyperus difformis = assay: Test Example 3: herbicidal effect by application to foliage (Wagner pot, water depth 0.1-0.5 cm); settings: Nineteenth Table, application herbicide amount 320 g/ha
# In short: as §2
# [5] = tested on: Echinochloa crus-galli var. crus-galli; assay: as above; settings: Nineteenth Table, application herbicide amount 320 g/ha
# In short: as §2
# Leptochloa chinensis = assay: as above; settings: Nineteenth Table, application herbicide amount 320 g/ha
# In short: as §2
# [6] = Application herbicide amount 320 g/ha, foliage application
structure (smiles),measurement,setting,value
Cc1nnc(NC(=O)c2ccc(C(F)(F)F)n3c(CS(=O)(=O)CC(F)(F)F)nnc23)o1 [1-039],d (directly sowed Oryza sativa) effect on crop,[1],0 (Herbicidal ratio of 5% or less (almost no effect))
same,g (Brassica campestris L.) effect on crop,Brassica campestris L.,0 (Herbicidal ratio of 5% or less (almost no effect))
same,c (Glycine max) effect on crop,Glycine max,0 (Herbicidal ratio of 5% or less (almost no effect))
same,e (Triticum aestivum) effect on crop,Triticum aestivum,0 (Herbicidal ratio of 5% or less (almost no effect))
same,f (Beta vulgaris ssp. vulgaris) effect on crop,[2],2 (Herbicidal ratio of 20% or more and less than 40%)
same,b (Zea mays) effect on crop,Zea mays,0 (Herbicidal ratio of 5% or less (almost no effect))
same,b (directly sowed Oryza sativa) effect on crop grade,[3],2 (Herbicidal ratio of 20% or more and less than 40%)
same,I (Avena fatua) herbicidal effect,Avena fatua,0 (Herbicidal ratio of 5% or less (almost no effect))
same,M (Abutilon theophrasti) herbicidal effect,Abutilon theophrasti,0 (Herbicidal ratio of 5% or less (almost no effect))
same,H (Echinochloa crus-galli var. crus-galli) herbicidal effect,[4],4 (Herbicidal ratio of 70% or more and less than 90%)
same,K (Lolium multiflorum Lam.) herbicidal effect,Lolium multiflorum Lam.,0 (Herbicidal ratio of 5% or less (almost no effect))
same,P (Stellaria media) herbicidal effect,Stellaria media,0 (Herbicidal ratio of 5% or less (almost no effect))
same,J (Alopecurus myosuroides) herbicidal effect,Alopecurus myosuroides,0 (Herbicidal ratio of 5% or less (almost no effect))
same,L (Apera spica-venti.) herbicidal effect,Apera spica-venti.,0 (Herbicidal ratio of 5% or less (almost no effect))
same,R (Veronica persica) herbicidal effect,Veronica persica,0 (Herbicidal ratio of 5% or less (almost no effect))
same,Q (Galium spurium) herbicidal effect,Galium spurium,0 (Herbicidal ratio of 5% or less (almost no effect))
same,F (Digitaria ciliaris) herbicidal effect,Digitaria ciliaris,2 (Herbicidal ratio of 20% or more and less than 40%)
same,O (Chenopodium album) herbicidal effect,Chenopodium album,4 (Herbicidal ratio of 70% or more and less than 90%)
same,G (Setaria viridis) herbicidal effect,Setaria viridis,0 (Herbicidal ratio of 5% or less (almost no effect))
same,N (Amaranthus retroflexus) herbicidal effect,Amaranthus retroflexus,1 (Herbicidal ratio of 5% or more and less than 20%)
same,E (Cyperus difformis) herbicidal ratio grade,Cyperus difformis,3 (Herbicidal ratio of 40% or more and less than 70%)
same,H (Echinochloa crus-galli var. crus-galli) herbicidal ratio grade,[5],3 (Herbicidal ratio of 40% or more and less than 70%)
same,D (Leptochloa chinensis) herbicidal ratio grade,Leptochloa chinensis,3 (Herbicidal ratio of 40% or more and less than 70%)
Cc1nnc(NC(=O)c2ccc(C(F)(F)F)n3c(-c4ccc(C(F)(F)F)cc4)nnc23)o1 [1-045],d (directly sowed Oryza sativa) effect on crop,[1],1 (Herbicidal ratio of 5% or more and less than 20%)
same,g (Brassica campestris L.) effect on crop,Brassica campestris L.,3 (Herbicidal ratio of 40% or more and less than 70%)
same,c (Glycine max) effect on crop,Glycine max,0 (Herbicidal ratio of 5% or less (almost no effect))
same,e (Triticum aestivum) effect on crop,Triticum aestivum,0 (Herbicidal ratio of 5% or less (almost no effect))
same,f (Beta vulgaris ssp. vulgaris) effect on crop,[2],3 (Herbicidal ratio of 40% or more and less than 70%)
same,b (Zea mays) effect on crop,Zea mays,0 (Herbicidal ratio of 5% or less (almost no effect))
same,b (directly sowed Oryza sativa) effect on crop grade,[3],0 (Herbicidal ratio of 5% or less (almost no effect))
same,I (Avena fatua) herbicidal effect,Avena fatua,0 (Herbicidal ratio of 5% or less (almost no effect))
same,M (Abutilon theophrasti) herbicidal effect,Abutilon theophrasti,4 (Herbicidal ratio of 70% or more and less than 90%)
same,H (Echinochloa crus-galli var. crus-galli) herbicidal effect,[4],2 (Herbicidal ratio of 20% or more and less than 40%)
same,K (Lolium multiflorum Lam.) herbicidal effect,Lolium multiflorum Lam.,0 (Herbicidal ratio of 5% or less (almost no effect))
same,P (Stellaria media) herbicidal effect,Stellaria media,2 (Herbicidal ratio of 20% or more and less than 40%)
same,J (Alopecurus myosuroides) herbicidal effect,Alopecurus myosuroides,0 (Herbicidal ratio of 5% or less (almost no effect))
same,L (Apera spica-venti.) herbicidal effect,Apera spica-venti.,0 (Herbicidal ratio of 5% or less (almost no effect))
same,R (Veronica persica) herbicidal effect,Veronica persica,3 (Herbicidal ratio of 40% or more and less than 70%)
same,Q (Galium spurium) herbicidal effect,Galium spurium,2 (Herbicidal ratio of 20% or more and less than 40%)
same,F (Digitaria ciliaris) herbicidal effect,Digitaria ciliaris,3 (Herbicidal ratio of 40% or more and less than 70%)
same,O (Chenopodium album) herbicidal effect,Chenopodium album,5 (Herbicidal ratio of 90% or more (almost completely withered))
same,G (Setaria viridis) herbicidal effect,Setaria viridis,1 (Herbicidal ratio of 5% or more and less than 20%)
same,N (Amaranthus retroflexus) herbicidal effect,Amaranthus retroflexus,4 (Herbicidal ratio of 70% or more and less than 90%)
same,E (Cyperus difformis) herbicidal ratio grade,Cyperus difformis,4 (Herbicidal ratio of 70% or more and less than 90%)
same,H (Echinochloa crus-galli var. crus-galli) herbicidal ratio grade,[5],1 (Herbicidal ratio of 5% or more and less than 20%)
same,D (Leptochloa chinensis) herbicidal ratio grade,Leptochloa chinensis,3 (Herbicidal ratio of 40% or more and less than 70%)
Cc1nnc(NC(=O)c2ccc(C(F)(F)F)n3c(SCC#N)nnc23)o1 [1-117],b (directly sowed Oryza sativa) effect on crop grade,[1]; [6],0 (Herbicidal ratio of 5% or less (almost no effect))
same,g (Brassica campestris L.) effect on crop grade,Brassica campestris L.; [6],1 (Herbicidal ratio of 5% or more and less than 20%)
same,d (Glycine max) effect on crop grade,Glycine max; [6],3 (Herbicidal ratio of 40% or more and less than 70%)
same,e (Triticum aestivum) effect on crop grade,Triticum aestivum; [6],0 (Herbicidal ratio of 5% or less (almost no effect))
same,f (Beta vulgaris ssp. vulgaris) effect on crop grade,[2]; [6],3 (Herbicidal ratio of 40% or more and less than 70%)
same,c (Zea mays) effect on crop grade,Zea mays; [6],0 (Herbicidal ratio of 5% or less (almost no effect))
same,b (effect on crop grade),[3]; application to foliage,0 (Herbicidal ratio of 5% or less (almost no effect))
same,I (Avena fatua) herbicidal effect grade,Avena fatua; [6],0 (Herbicidal ratio of 5% or less (almost no effect))
same,M (Abutilon theophrasti) herbicidal effect grade,Abutilon theophrasti; [6],3 (Herbicidal ratio of 40% or more and less than 70%)
same,H (Echinochloa crus-galli var. crus-galli) herbicidal effect grade,[4]; [6],4 (Herbicidal ratio of 70% or more and less than 90%)
same,K (Lolium multiflorum Lam.) herbicidal effect grade,Lolium multiflorum Lam.; [6],0 (Herbicidal ratio of 5% or less (almost no effect))
same,P (Stellaria media) herbicidal effect grade,Stellaria media; [6],3 (Herbicidal ratio of 40% or more and less than 70%)
same,J (Alopecurus myosuroides) herbicidal effect grade,Alopecurus myosuroides; [6],0 (Herbicidal ratio of 5% or less (almost no effect))
same,L (Apera spica-venti.) herbicidal effect grade,Apera spica-venti.; [6],0 (Herbicidal ratio of 5% or less (almost no effect))
same,R (Veronica persica) herbicidal effect grade,Veronica persica; [6],3 (Herbicidal ratio of 40% or more and less than 70%)
same,Q (Galium spurium) herbicidal effect grade,Galium spurium; [6],1 (Herbicidal ratio of 5% or more and less than 20%)
same,F (Digitaria ciliaris) herbicidal effect grade,Digitaria ciliaris; [6],1 (Herbicidal ratio of 5% or more and less than 20%)
same,O (Chenopodium album) herbicidal effect grade,Chenopodium album; [6],5 (Herbicidal ratio of 90% or more (almost completely withered))
same,G (Setaria viridis) herbicidal effect grade,Setaria viridis; [6],1 (Herbicidal ratio of 5% or more and less than 20%)
same,N (Amaranthus retroflexus) herbicidal effect grade,Amaranthus retroflexus; [6],3 (Herbicidal ratio of 40% or more and less than 70%)
same,E (herbicidal effect grade),Cyperus difformis; application to foliage,2 (Herbicidal ratio of 20% or more and less than 40%)
same,H (herbicidal effect grade),[5]; application to foliage,4 (Herbicidal ratio of 70% or more and less than 90%)
same,D (herbicidal effect grade),Leptochloa chinensis; application to foliage,4 (Herbicidal ratio of 70% or more and less than 90%)
